Test results: publication PMC7156736, “Phase 1 study of the pan-HER inhibitor dacomitinib plus the MEK1/2 inhibitor PD-0325901 in patients with KRAS-mutation-positive colorectal, non-small-cell lung and pancreatic cancer” (British Journal of Cancer, 2020)
Where two headings read alike, the source gives them in different places.

How the values were obtained:
[1] = tested on: HER2; details: human catalytic domain of HER2; read-out: in vitro IC50; cited from earlier work
[2] = tested on: HER4; details: human catalytic domain of HER4; read-out: in vitro IC50; cited from earlier work
[3] = plasma pharmacokinetics in patients (HPLC–MS/MS, non-compartmental analysis); type: in vivo, human; details: for AUC(0-t) / Cmax / Tmax: human, plasma, oral; for AUC(0-t): read-out: AUC0-24h dacomitinib, mean (CV%); for Cmax: read-out: Cmax dacomitinib, mean (CV%); for Tmax: read-out: tmax dacomitinib, mean
Experimental: For pharmacokinetic analyses, serial blood samples were obtained from all patients prior to treatment administration on day 1, and 1, 2, 3, 4, 6, 8, 12, 24, 72 and 144 h after the first dose. On day 1 of cycle 2, blood samples were drawn before and 1, 2, 3, 4, 6, 8, 12 and 24 h after administration. Plasma samples were assayed using a validated high-performance liquid chromatography– tandem mass spectrometry method (HPLC–MS/MS). Briefly, dacomitinib and PD-0325901 were extracted from plasma by protein precipitation with a mixture of acetonitrile/methanol (1:1 v/v). Compounds were chromatographically separated using a Waters Xbridge BEH Phenyl column (50 ×2.1-mm ID, 5-μm particle size), and detection was performed using an API4000 tandem mass spectrometer equipped with a turbo ion spray interface, operating in the positive ion mode. Transitions from m/z 480 to 329 and m/z 489 to 255 were monitored for the detection of dacomitinib and PD-0325901, respectively. Stable isotope-labelled internal standards were used for the quantification. The lower and upper limits of quantification were, respectively, 0.5 and 50 ng/ml for dacomitinib, and 5 and 500 ng/ml for PD-0325901. Pharmacokinetic parameters were calculated in R using an in-house-developed validated script for non-compartmental pharmacokinetic analyses (version 3.6.0).[9]

[4] = tested on: patients with KRASm CRC, NSCLC or pancreatic cancer; type: in vivo; details: dacomitinib QD continuous, PD-0325901 BID 21 days on/7 days off
Description: . The starting doses were based on previous data from single-agent Phase 1 studies with both compounds, taking into account the potential for synergistic toxicity. […]. Dose-escalation decisions were based on safety evaluation of all evaluable patients, performed after completion of the first treatment cycle. Patients were considered evaluable for the dose-determining part of this study if at least one cycle of study treatment was completed, with the minimum safety evaluation conducted, and at least one administration of both drugs received, or if dose-limiting toxicity (DLT) had occurred during the first cycle. If one out of three patients experienced a DLT, the number of patients treated at that dose level was expanded to a maximum of six. […] Patients were continuing study treatment until disease progression, unacceptable toxicity or investigator/patient decision to discontinue.
Safety was monitored throughout the treatment by physical examination, laboratory assessments, electrocardiography, ophthalmic evaluation and collection of adverse events. Adverse events were recorded according to the Common Terminology Criteria for Adverse Events version 4.0. All adverse events that were possible, probable or definite related to study drug were considered as study/treatment related. […]

[5] = tested on: HER2/HER3; set-up: method as in unpublished data; details: ref unpublished data; cited from earlier work
[6] = tested on: HER1; details: human catalytic domain of HER1; read-out: in vitro IC50; cited from earlier work
[7] = 15 mg, All 15 mg doses, Cycle 1 Day 1, n = 23
[8] = 15 mg, All 15 mg doses, Cycle 2 Day 1, n = 18
[9] = 30 mg, All 30 mg doses, Cycle 1 Day 1, n = 17
[10] = 30 mg, All 30 mg doses, Cycle 2 Day 1 or last day of concomitant use, n =11
[11] = Dose-level 1: dacomitinib 30 mg QD + PD-0325901 2 mg BID, Cycle 1 Day 1, n = 6
[12] = Dose-level 1: dacomitinib 30 mg QD + PD-0325901 2 mg BID, Cycle 2 Day 1, n = 6
[13] = Dose-level 2: dacomitinib 15 mg QD + PD-0325901 3 mg BID, Cycle 1 Day 1, n = 6
[14] = Dose-level 2: dacomitinib 15 mg QD + PD-0325901 3 mg BID, Cycle 2 Day 1, n = 5
[15] = Dose-level 3: dacomitinib 15 mg QD + PD-0325901 4 mg BID, Cycle 1 Day 1, n = 2
[16] = Dose-level 3: dacomitinib 15 mg QD + PD-0325901 4 mg BID, Cycle 2 Day 1, n = 2
[17] = Dose-level 4: dacomitinib 15 mg QD + PD-0325901 5 mg BID, Cycle 1 Day 1, n = 3
[18] = Dose-level 4: dacomitinib 15 mg QD + PD-0325901 5 mg BID, Cycle 2 Day 1, n = 3
[19] = Dose-level 5: dacomitinib 15 mg QD + PD-0325901 6 mg BID, Cycle 1 Day 1, n = 8
[20] = Dose-level 5: dacomitinib 15 mg QD + PD-0325901 6 mg BID, Cycle 2 Day 1, n = 5
[21] = Dose-level 6: dacomitinib 30 mg (4/3) QD + PD-0325901 6 mg BID, Cycle 1 Day 1, n = 3
[22] = Dose-level 6: dacomitinib 30 mg (4/3) QD + PD-0325901 6 mg BID, last day of concomitant use of both drugs, n = 1
[23] = Dose-level 7: dacomitinib 30 mg (5/2) QD + PD-0325901 6 mg (5/2) BID, Cycle 1 Day 1, n = 3
[24] = Dose-level 7: dacomitinib 30 mg (5/2) QD + PD-0325901 6 mg (5/2) BID, last day of concomitant use of both drugs, n = 2
[25] = Dose-level 8: dacomitinib 30 mg (5/2) QD + PD-0325901 5 mg (5/2) BID, Cycle 1 Day 1, n = 5
[26] = Dose-level 8: dacomitinib 30 mg (5/2) QD + PD-0325901 5 mg (5/2) BID, last day of concomitant use of both drugs, n=2
[27] = Dose-level -1: dacomitinib 15 mg QD + PD-0325901 2 mg BID, Cycle 1 Day 1, n = 4
[28] = Dose-level -1: dacomitinib 15 mg QD + PD-0325901 2 mg BID, Cycle 2 Day 1, n = 3

COc1cc2ncnc(Nc3ccc(F)c(Cl)c3)c2cc1NC(=O)/C=C/CN1CCCCC1 [dacomitinib]
IC50 [1]: 45.7 nM
IC50 [2]: 74 nM
plasma concentration versus preclinical target of 22 ng/ml ([3]; 15 mg dacomitinib doses, for a substantial number of patients): did not exceed the preclinical target
increase of exposure with dose ([3]; across dose levels): approximately dose-proportionally
AUC(0-t) [3, 7]: 122 ng·h/mL
Cmax [3, 7]: 8.6 ng/mL
Tmax [3, 7]: 7.6 h
AUC(0-t) [3, 8]: 616 ng·h/mL
Cmax [3, 8]: 31.2 ng/mL
Tmax [3, 8]: 7.2 h
AUC(0-t) [3, 9]: 250 ng·h/mL
Cmax [3, 9]: 16 ng/mL
Tmax [3, 9]: 8.3 h
AUC(0-t) [3, 10]: 909 ng·h/mL
Cmax [3, 10]: 51.7 ng/mL
Tmax [3, 10]: 4.8 h
AUC(0-t) [3, 11]: 318 ng·h/mL
Cmax [3, 11]: 19.2 ng/mL
Tmax [3, 11]: 7.5 h
AUC(0-t) [3, 12]: 888 ng·h/mL
Cmax [3, 12]: 47.4 ng/mL
Tmax [3, 12]: 7.6 h
AUC(0-t) [3, 13]: 112 ng·h/mL
Cmax [3, 13]: 6.7 ng/mL
Tmax [3, 13]: 8.7 h
AUC(0-t) [3, 14]: 549 ng·h/mL
Cmax [3, 14]: 26 ng/mL
Tmax [3, 14]: 9.6 h
AUC(0-t) [3, 15]: 45 ng·h/mL
Cmax [3, 15]: 2.5 ng/mL
Tmax [3, 15]: 12 h
AUC(0-t) [3, 16]: 262 ng·h/mL
Cmax [3, 16]: 25.7 ng/mL
Tmax [3, 16]: 2 h
AUC(0-t) [3, 17]: 137 ng·h/mL
Cmax [3, 17]: 8.5 ng/mL
Tmax [3, 17]: 4.7 h
AUC(0-t) [3, 18]: 654 ng·h/mL
Cmax [3, 18]: 33.5 ng/mL
Tmax [3, 18]: 5 h
AUC(0-t) [3, 19]: 136 ng·h/mL
Cmax [3, 19]: 11.4 ng/mL
Tmax [3, 19]: 7.9 h
AUC(0-t) [3, 20]: 747 ng·h/mL
Cmax [3, 20]: 37.3 ng/mL
Tmax [3, 20]: 4.4 h
AUC(0-t) [3, 21]: 159 ng·h/mL
Cmax [3, 21]: 11.1 ng/mL
Tmax [3, 21]: 7.3 h
AUC(0-t) [3, 22]: 647 ng·h/mL
Cmax [3, 22]: 32 ng/mL
Tmax [3, 22]: 8 h
AUC(0-t) [3, 23]: 290 ng·h/mL
Cmax [3, 23]: 19.1 ng/mL
Tmax [3, 23]: 13.3 h
AUC(0-t) [3, 24]: 658 ng·h/mL
Cmax [3, 24]: 37.5 ng/mL
Tmax [3, 24]: 4.5 h
AUC(0-t) [3, 25]: 200 ng·h/mL
Cmax [3, 25]: 14.2 ng/mL
Tmax [3, 25]: 6.6 h
AUC(0-t) [3, 26]: 789 ng·h/mL
Cmax [3, 26]: 55.9 ng/mL
Tmax [3, 26]: 4.5 h
AUC(0-t) [3, 27]: 126 ng·h/mL
Cmax [3, 27]: 7.9 ng/mL
Tmax [3, 27]: 5.6 h
AUC(0-t) [3, 28]: 513 ng·h/mL
Cmax [3, 28]: 26.3 ng/mL
Tmax [3, 28]: 11 h
increase of mean Cmax and AUC0–24h after multiple dosing (accumulation) ([3]; patients, combination treatment): 3- to 5 fold
recommended Phase 2 dose (RP2D) / established maximum dose level in the combination with continuous dacomitinib dosing [4]: 15 mg
IC50 for HER2/HER3 inhibition (preclinical target plasma concentration) [5]: 0.022 µg/mL
IC50 [6]: 6 nM
